Consider eight substances from patent publication US8987193B2, “Nisin derivatives and the use thereof” (University College Cork—National University of Ireland, Cork, priority 2008, dated 2015).

One assay relates to S. aureus CBC4. Put plainly: Deferred antagonism assay. Also on record: key: + = Enhanced bioactivity relative to control; − = Bioactivity equal to or less than control; NA = no activity evident. It counts as cell-based. As to conditions: XX and XXX hinge mutant producers. As to the method:
(§1) Deferred antagonism assays were performed by replicating strains on GM17 or GM17 x-gal agar plates and allowing them to grow overnight before overlaying with either GM17/BHI/TS/MH agar (0.75% w/v agar) seeded with the appropriate indicator strain. Zone size was calculated as the diameter of the zone of clearing minus the diameter of bacterial growth (5 mm) For higher throughput screening of N20PXX, XM21VX, XXK22T and XXX banks deferred antagonism assays were performed by replicating strains using a 96 pin replicator (Boekel) or spotting 5 μl of a fresh overnight culture on GM17 agar plates and allowing them to grow overnight. […] Additional sets of indicators were employed to further assess/reassess the bioactivity of a number of strains. […] For well-diffusion assays molten agar was cooled to 48° C. and seeded with the appropriate indicator strain. The inoculated medium was rapidly transferred into sterile Petri plates in 50 ml volumes, allowed to solidify and dried. Wells (4.6 mm in diameter) were then made in the seeded plates. Purified nisin and mutant nisins were resuspended in 0.005% acetic acid, serially diluted, 50 μl volumes were dispensed into the aforementioned wells and the plates incubated at 37° C. overnight. Bioactivity was expressed as arbitrary units/ml (AU/ml) and calculated as the reciprocal of the highest dilution that gave a definite zone multiplied by the conversion factor (i.e. 20 when 50 μl was used) (Ryan et al., 1996).
(§2) As a consequence of the enhanced activities of K22T and K22S, a more in-depth investigation of this region was carried out. Saturation mutagenesis was undertaken to create a bank of nisin A hinge derivatives containing the vast majority of possible amino acid substitutions for each position. Although pPTPL was used successfully for random mutagenesis, its relatively large size of approx 10.5 kb was considered unsuitable for the complete plasmid PCR amplification approach utilized for saturation mutagenesis. A smaller (approx 6 kb) E. coli-L. lactis shuttle vector pCI372 was considered to be potentially more useful. Its suitability with respect to the in trans expression of nisA was confirmed by the ability of pDFO5 to restore the nisin positive phenotype. Saturation mutagenesis was performed on each codon using pDF05 and oligonucleotides (Table 5) that replace the specific codon with a NNK triplet, potentially encoding all 20 standard amino acids. Following complete plasmid amplification and introduction into the intermediate Top10 host, sequence analysis of a pooled bank of pDF05 derivatives confirmed randomization. Introduction of these variants into L. lactis NZ9800 allowed the expression of mutant nisin A peptides for further analysis. […] 46 residue conversions were isolated. All strains, regardless of bioactivity, were assessed with a view to comprehensively assessing the consequences of each individual hinge alteration.

For the next assay, the system named is L. lactis CBC8. Briefly: Deferred antagonism assay. Conditions: XX and XXX hinge mutant producers. Also on record: key: + = Enhanced bioactivity relative to control; − = Bioactivity equal to or less than control; NA = no activity evident. It counts as cell-based. How it is done:
as §1, §2

A further assay has as its system L. lactis CBC7. Put plainly: Deferred antagonism assay. It is filed as cell-based. On the set-up: key: + = Enhanced bioactivity relative to control; − = Bioactivity equal to or less than control; NA = no activity evident. As to conditions: XX and XXX hinge mutant producers. How it is done: as §1, §2
In another assay the test system is L. monocytogenes CBC2. Put plainly: Deferred antagonism assay. It counts as cell-based, Listeria monocytogenes. As to conditions: L. mono CBC2; XX and XXX hinge mutant producers. Also on record: key: + = Enhanced bioactivity relative to control; − = Bioactivity equal to or less than control; NA = no activity evident. How it is done:
as §1, §2

The next assay deals with L. monocytogenes CBC1. Briefly: Deferred antagonism assay. It is filed as cell-based, Listeria monocytogenes. On the set-up: key: + = Enhanced bioactivity relative to control; − = Bioactivity equal to or less than control; NA = no activity evident. As to conditions: L. mono CBC1; XX and XXX hinge mutant producers. As to the method: as §1, §2
Another assay relates to L. monocytogenes CBC3. Put plainly: Deferred antagonism assay. It is filed as cell-based, Listeria monocytogenes. On the set-up: key: + = Enhanced bioactivity relative to control; − = Bioactivity equal to or less than control; NA = no activity evident. As to conditions: L. mono CBC3; XX and XXX hinge mutant producers. As to the method:
as §1, §2

The test system of a further assay is indicator strains. Briefly: Deferred antagonism assays, various indicator strains (summary). It counts as cell-based. Conditions: for Target strain against which the hinge mutant was selected for enhanced bioactivity: XX and XXX banks, L. lactis HP*: enhanced or equal; for Target strain against which the hinge mutant was selected for enhanced bioactivity / Strain(s) against which the derivative (producing strain) displays enhanced bioactivity: relative to nisin A-producing control; for number of targets with enhanced activity: of the 8 additional targets tested; for Strain(s) against which the derivative (producing strain) displays enhanced bioactivity: value = strains listed. How it is done: as §1

The subject of the next assay is L. plantarum CBC6. Put plainly: Deferred antagonism assay. Also on record: key: + = Enhanced bioactivity relative to control; − = Bioactivity equal to or less than control; NA = no activity evident. Conditions: XX and XXX hinge mutant producers. It is filed as cell-based, Lactobacillus plantarum. As to the method:
as §1, §2

Entries after “also recorded” stand apart in the source; their conditions may differ. Ends that are not written are not given here.

As for “NisinA HLT (ITSISLCTPGCKTGALMGCHLTTATCHCSIHVSK; cysteine pairing not given here; also: lantibiotic nisin-A; UniProt P13068 24-57, looked up, variant N20H M21L K22T) [nisin A hinge variant HLT (i.e. N20H, M21L, K22T)]”, the “bioactivity relative to a nisin A-producing control” value in the assay with S. aureus CBC4 is on record as “+”; in the assay on L. lactis CBC8, “−”; with L. lactis CBC7, “+”; in the assay with L. monocytogenes CBC2, “+”; with L. monocytogenes CBC1 it was “−”; with L. monocytogenes CBC3, “+”. Moreover, the “bioactivity relative to a nisin A-producing control” value with L. plantarum CBC6 was “−”. The “Target strain against which the hinge mutant was selected for enhanced bioactivity” value in the assay on indicator strains is “Strep. agalactiae ATCC 13813”. In addition, the “number of targets with enhanced activity” value with indicator strains was 4. The “Strain(s) against which the derivative (producing strain) displays enhanced bioactivity” value (shortened to “Strain(s) against which the derivative”) in the assay with indicator strains was “S. agalactiae ATCC13813, L. monocytogenes CBC2 and CBC3, S. aureus CBC4 and L. lactis CBC7; also recorded: S. agalactiae ATCC13813, L. mono CBC2, CBC3, S. aureus”.

Regarding NisinA PAA, the “bioactivity relative to a nisin A-producing control” value is listed as “+” in the assay on S. aureus CBC4; “−” with L. lactis CBC8; “−” with L. lactis CBC7; “−” in the assay with L. monocytogenes CBC2; “−” in the assay on L. monocytogenes CBC1; “−” in the assay with L. monocytogenes CBC3. Besides, the “bioactivity relative to a nisin A-producing control” value in the assay on L. plantarum CBC6 was “−”. For the same substance, the “Target strain against which the hinge mutant was selected for enhanced bioactivity” value in the assay on indicator strains was “C. sporogenes UCC1”. For the same substance, in the assay with indicator strains, the “Strain(s) against which the derivative” value is “C. sporogenes UCC1 and S. aureus CBC4”.

As for NisinA PAK, the “bioactivity relative to a nisin A-producing control” value was “+” in the assay with S. aureus CBC4; “−” in the assay with L. lactis CBC8; “−” with L. lactis CBC7; “−” in the assay on L. monocytogenes CBC2; “−” with L. monocytogenes CBC1; “−” in the assay on L. monocytogenes CBC3. For the same substance, the “bioactivity relative to a nisin A-producing control” value in the assay with L. plantarum CBC6 is reported as “−”. Moreover, the “Target strain against which the hinge mutant was selected for enhanced bioactivity” value in the assay with indicator strains is listed as “Staph. aureus RF122/L. lactis HP*”. For the same substance, the “number of strains with bioactivity” value with indicator strains (of the 16 strains tested) was found to be 7. In addition, the “Strain(s) against which the derivative” value with indicator strains is “S. aureus RF122 , CBC4 , NCDO1499 and DPC5246, L. lactis MG1363 , and L. monocytogenes 10403S and EGDe; also recorded: DPC5246, NCDO1499, L. mono 10403S and EGDe”.

Regarding “NisinA PAL (ITSISLCTPGCKTGALMGCPALTATCHCSIHVSK; not fully specified (bridges); also: lantibiotic nisin-A: lanthionine rings and dehydrated residues, places not given here; UniProt P13068 24-57, looked up, variant N20P M21A K22L) [nisin A hinge variant PAL (i.e. N20P, M21A, K22L)]”, the “bioactivity relative to a nisin A-producing control” value was “+” in the assay with S. aureus CBC4; “+” in the assay with L. lactis CBC8; “+” with L. lactis CBC7; “+” in the assay with L. monocytogenes CBC2; “−” with L. monocytogenes CBC1; “−” in the assay on L. monocytogenes CBC3. Further, the “bioactivity relative to a nisin A-producing control” value with L. plantarum CBC6 is reported as “−”. In addition, the “Target strain against which the hinge mutant was selected for enhanced bioactivity” value with indicator strains is given as “C. sporogenes UCC1”. Further, the “number of targets with enhanced activity” value in the assay with indicator strains is given as 4. In addition, in the assay on indicator strains, the “Strain(s) against which the derivative” value is “C. sporogenes UCC1, S. aureus CBC4, L. lactis CBC7 and CBC8, L. monocytogenes CBC2 and an additional 10 L. monocytogenes and 2 L. innocua; also recorded: C. sporogenes UCC1, L. mono CBC2, S. aureus CBC4, L. lactis”.

“NisinA PAT (ITSISLCTPGCKTGALMGCPATTATCHCSIHVSK; not fully specified (bridges); also: lantibiotic nisin-A: lanthionine rings and dehydrated residues, places not given here; UniProt P13068 24-57, looked up, variant N20P M21A K22T) [nisin A hinge variant PAT (i.e. N20P, M21A, K22T)]”: the “bioactivity relative to a nisin A-producing control” value in the assay with S. aureus CBC4, in the assay on L. lactis CBC8, with L. lactis CBC7, with L. monocytogenes CBC2, in the assay with L. monocytogenes CBC1 and in the assay with L. monocytogenes CBC3 was “−” in each case. Also, the “bioactivity relative to a nisin A-producing control” value with L. plantarum CBC6 was “−”. In addition, the “Target strain against which the hinge mutant was selected for enhanced bioactivity” value in the assay with indicator strains was “Strep. agalactiae ATCC 13813”. For the same substance, the “Strain(s) against which the derivative” value in the assay on indicator strains is reported as “S. agalactiae ATCC13813”.

Turning to NisinA PIA, the “bioactivity relative to a nisin A-producing control” value in the assay with S. aureus CBC4, in the assay with L. lactis CBC8, in the assay on L. lactis CBC7, with L. monocytogenes CBC2, with L. monocytogenes CBC1 and with L. monocytogenes CBC3 was “−” each time. Also, in the assay on L. plantarum CBC6, the “bioactivity relative to a nisin A-producing control” value is listed as “−”. Also, the “Target strain against which the hinge mutant was selected for enhanced bioactivity” value in the assay with indicator strains is listed as “Staph. aureus RF122”. Besides, in the assay on indicator strains, the “Strain(s) against which the derivative” value was “B. cereus UCC1”.

With NisinA PIM, the “bioactivity relative to a nisin A-producing control” value with S. aureus CBC4, with L. lactis CBC8, in the assay on L. lactis CBC7, with L. monocytogenes CBC2, with L. monocytogenes CBC1 and in the assay with L. monocytogenes CBC3 was “−” each time. Besides, in the assay with L. plantarum CBC6, the “bioactivity relative to a nisin A-producing control” value was “−”. Further, the “Target strain against which the hinge mutant was selected for enhanced bioactivity” value with indicator strains is “Staph. aureus RF122”. Further, in the assay with indicator strains, the “Strain(s) against which the derivative” value is recorded as “B. cereus UCC1”.

As to “NisinA PLA (ITSISLCTPGCKTGALMGCPLATATCHCSIHVSK; not fully specified (bridges); also: lantibiotic nisin-A: lanthionine rings and dehydrated residues, places not given here; UniProt P13068 24-57, looked up, variant N20P M21L K22A) [nisin A hinge variant PLA (i.e. N20P, M21L, K22A)]”, the “bioactivity relative to a nisin A-producing control” value in the assay on S. aureus CBC4 is given as “+”; in the assay with L. lactis CBC8, “−”; with L. lactis CBC7 it was “−”; with L. monocytogenes CBC2, “−”; in the assay with L. monocytogenes CBC1 it was “−”; in the assay on L. monocytogenes CBC3, “−”. In the assay on L. plantarum CBC6, the “bioactivity relative to a nisin A-producing control” value was “−”. In addition, the “Target strain against which the hinge mutant was selected for enhanced bioactivity” value in the assay with indicator strains is listed as “B. cereus UCC1”. In the assay on indicator strains, the “Strain(s) against which the derivative” value is “B. cereus UCC1 and S. aureus CBC4”.
